Test results taken from US20230043985A1, “ONCE DAILY CANCER TREATMENT REGIMEN WITH A PRMT5 INHIBITOR” (Pfizer Inc., priority 2019, published 2023).

Key:
[1] = Pre-clinical prediction of human in vivo plasma clearance from human liver microsomes; type: in vitro ADME; conditions: used as the predicted CL
Method: (§1) Briefly, in vivo plasma clearance (CL) in humans was predicted to be ˜3 and ˜0.6 mL/min/kg from human liver microsomes and hepatocytes, respectively. The conservative value of ˜3 mL/min/kg from human liver microsomes was used as the predicted CL. […] A half-life (t1/2) is predicted to be ˜6 h calculated by the equation: t1/2=0.693*Vss/CL.

[2] = Pre-clinical prediction of human in vivo plasma clearance from hepatocytes; type: in vitro ADME
Method: as §1

[3] = Pre-clinical projection of human Vss, half-life and peak to trough ratio (unbound Vss scaling from rats and dogs; t1/2=0.693*Vss/CL); conditions: for predicted peak to trough ratio in humans: based on ~6-hour projected half-life
Method: as §1
Moreover, based on the ˜6-hour projected half-life for Compound 1 the likely peak to trough ratio in humans was predicted to be lower following twice daily (BID) dosing (˜4) compared to once daily (QD) dosing (˜8 or more). Lower peak to trough ratios are generally more desirable because they may help to minimize potential Cmax-related adverse effects (if any) while maintaining the therapeutic effects.
Half-life, for instance the half-life of Compound 1, refers to the time it takes for the plasma concentration of Compound 1 to decrease by 50% as calculated by the equation: 0.693*Vss/CL where Vss is the steady-state volume of distribution and CL is plasma clearance.

[4] = Phase 1 clinical PK of Compound 1 in patients (plasma, LC-MS/MS), Study NCT03854227; type: in vivo, human
Method: Peak to trough ratio refers to the ratio of the maximum concentration (Cmax) to minimum concentration (Cmin) of Compound 1 observed. Relevant to the present invention is the peak to trough ration during the dosing interval at “steady state” (day 15). Blood samples for the characterization of PK profiles were collected at pre- and post-dose on Day 1 (single dose) and Day 15 (steady state), and were analyzed for Compound 1 using a validated liquid chromatography coupled with tandem mass spectrometry (LC-MS/MS) assay. The lower limit of quantitation of the assay was 0.250 ng/mL. The representative day 1 median PK profile of Compound 1 dosed at 2 mg BID is provided at FIG. 1. The representative steady state (day 15) median PK profile of Compound 1 dosed at 2 mg BID is provided at FIG. 2. Table 1 (below) depicts representative mean maximum (Cmax) and minimum (Cmin) daily concentrations of Compound 1 at “steady state” (day 15) dosed BID at 2 mg. A population pharmacokinetic (PK) model was generated based on the preliminary PK data from 6 patients received Compound 1 orally at doses up to 2 mg BID at steady state. It was observed that actual mean peak to trough ratio at steady state (here, 15 days of dosing) of Compound 1 in the NCT03854227 clinical trial was ˜2 for BID dosing, substantially lower than that previously predicted based on pre-clinical data (˜4 for BID). Furthermore, based on this population PK model, the steady state PK profiles following QD vs BID dosing (using a 16 mg total daily dose as an example) were compared using the individual PK parameters from each of these 6 patients. […] Compound 1 was provided to patients in three cohorts as tablets ((1) 1 mg tablets (for patient dosed with 4 mg QD); and 2) 1 mg and 5 mg tablets (for patients dosed with 6 mg QD and 8 mg QD)) supplied in separate labeled bottles for oral administration. Because patients were receiving 4 mg QD, 6 mg QD, and 8 mg QD, respectively, each of them were instructed to swallow whole (i.e., without crushing or chewing) 1) four 1 mg tablets (for the 4 mg QD cohort (N=3)); 2) one 5 mg tablets and one 1 mg tablet (for the 6 mg cohort (N=6)); and 3) one 5 mg tablet and three 1 mg tablets (for the 8 mg cohort (N=2)) at the same time each morning with at least 8 oz (240 mL) of water on an empty stomach. No food or liquids other than water were consumed for 2 hours before and 1 hour following each dose administration. Patients in these cohorts took Compound 1 orally QD as described above for four cycles (a cycle is 28 days). Weekly visits to the clinic were made by the patient to evaluate the anti-cancer activity and side effects of Compound 1. FIG. 5, FIG. 6, and FIG. 7 show the Day 15 steady state median concentration-time profiles for 4 mg QD, 6 mg QD, and 8 mg QD, respectively. […]

PRMT5 = target: T1, PRMT5 (Homo sapiens, UniProt O14744); test: Blood pharmacodynamic biomarker plasma SDMA inhibition (LC-MS/MS) in patients; type: in vivo
T1 construct: endogenous in cells; host or cells: tissues of the dosed subjects (in vivo); SDMA measured in plasma by LC-MS/MS
Method: The plasma SDMA (Symmetrical Dimethylarginine) level was used as a pharmacodynamic biomarker (PD) to monitor the inhibition effect of Compound 1. SDMA was chosen for the blood PD biomarker because PRMT5 catalyzes the formation of SDMA in a number of nuclear and cytoplasmic proteins, and PRMT5 inhibition would result in a decrease of SDMA. The quantitative determination of SDMA was performed by using a liquid chromatography mass spectrometry (LC-MS/MS) assay which is an exceedingly sensitive and specific analytical technique that can precisely determine the identities and concentration of compounds such as SDMA within a sample. The assay had been validated from 1-500 ng/ml in plasma. […] The plasma SDMA inhibition were around 60% for the first two cohorts (N=1 in each cohort), including 0.5 mg QD and 0.5 mg BID. The plasma SDMA inhibition was around 80% from cohort 3 to cohort 9, including 1 mg BID (N=2), 2 mg BID (N=3), 4 mg BID (N=3), 6 mg BID (N=4), 4 mg QD (N=5), 6 mg QD (N=6), and 8 mg QD (N=3).

[5] = Tolerability of BID dosing scheme in Phase 1 clinical trial; type: in vivo, human; conditions: BID (twice daily) dosing scheme, patients
Excerpt: These calculations, and in particular the half-life projection, were incorporated into the design of a Phase I clinical trial of Compound 1 [Study NCT03854227; A Phase 1 Study to Evaluate the Safety, Pharmacokinetics, and Pharmacodynamics of Escalating Doses Of [Compound 1] (PRMT Inhibitor) in Participants with Advanced or Metastatic Non-Small Cell Lung Cancer, Head And Neck Squamous Cell Carcinoma, Esophageal Cancer, Endometrial Cancer, Cervical Cancer And Bladder Cancer; first posted 26 Feb. 2019] which included BID (twice daily) dosing of 0.5 mg, 1 mg, 2 mg, 4 mg, 8 mg, 16 mg, 30 mg and 60 mg Compound 1. BID (twice daily) dosing was implemented for all doses thought to potentially be therapeutic in order to limit (i.e., lessen) the projected peak to trough ratio of Compound 1 in view of the predicted ˜6-hour half-life of Compound 1.
In this regard, it is noted that the primary indications for Compound 1 are various cancer types which are often accompanied by patients' physical and emotional difficulties in executing self-care. Moreover, many cancer indications become more prevalent with advancing age and is often accompanied by decline in memory. […]
Part 1A (dose escalation) has approximately 9 cohorts and enrolls approximately 40 participants. […] Dose limiting toxicities (DLT) were assessed at the end of Cycle 1 (28 days) to inform dose escalation and determine the MTD. […]

T1 sequence (O14744 whole entry): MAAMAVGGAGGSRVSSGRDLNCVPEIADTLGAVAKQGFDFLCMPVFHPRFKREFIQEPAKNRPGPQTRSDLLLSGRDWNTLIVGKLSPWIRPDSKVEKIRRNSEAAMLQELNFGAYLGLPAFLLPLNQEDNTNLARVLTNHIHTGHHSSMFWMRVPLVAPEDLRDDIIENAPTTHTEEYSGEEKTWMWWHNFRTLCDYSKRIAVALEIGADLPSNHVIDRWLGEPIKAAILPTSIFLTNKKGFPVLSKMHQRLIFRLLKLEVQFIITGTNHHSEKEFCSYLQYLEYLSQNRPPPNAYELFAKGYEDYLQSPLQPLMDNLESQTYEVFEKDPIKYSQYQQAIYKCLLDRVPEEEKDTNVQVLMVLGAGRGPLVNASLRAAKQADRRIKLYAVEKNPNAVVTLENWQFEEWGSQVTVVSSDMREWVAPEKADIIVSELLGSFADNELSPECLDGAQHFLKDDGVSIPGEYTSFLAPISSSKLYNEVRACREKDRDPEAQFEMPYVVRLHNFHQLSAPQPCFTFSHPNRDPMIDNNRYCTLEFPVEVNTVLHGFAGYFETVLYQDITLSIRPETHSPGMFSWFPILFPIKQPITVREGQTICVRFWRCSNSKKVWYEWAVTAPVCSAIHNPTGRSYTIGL
T1 sequence (Q9BQA1 whole entry partner): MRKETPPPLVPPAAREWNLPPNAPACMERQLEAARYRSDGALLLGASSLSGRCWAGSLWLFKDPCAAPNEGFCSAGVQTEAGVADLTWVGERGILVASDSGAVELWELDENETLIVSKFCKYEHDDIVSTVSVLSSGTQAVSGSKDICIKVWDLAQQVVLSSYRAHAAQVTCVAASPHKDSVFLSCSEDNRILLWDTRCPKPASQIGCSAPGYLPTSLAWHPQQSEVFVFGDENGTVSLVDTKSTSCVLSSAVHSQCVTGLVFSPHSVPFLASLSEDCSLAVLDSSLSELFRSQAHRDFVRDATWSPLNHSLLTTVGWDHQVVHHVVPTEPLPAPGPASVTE

With `Cc1ncnc2c1ccn2[C@@H]1C[C@H](Oc2cc(C(F)F)c(F)c3c2CNCC3)[C@@H](O)[C@H]1O` [Compound 1, (1S,2S,3S,5R)-3-((6-(difluoromethyl)-5-fluoro-1,2,3,4-tetrahydroisoquinolin-8-yl)oxy)-5-(4-methyl-7H-pyrrolo[2,3-d]pyrimidin-7-yl)cyclopentane-1,2-diol] the “predicted in vivo plasma clearance (CL) in humans” value [1] was ~3 mL/min/kg, the “predicted in vivo plasma clearance (CL) in humans” value [2] was ~0.6 mL/min/kg and the “predicted half-life (t1/2) in humans” value ([3]; calculated t1/2=0.693*Vss/CL) was ~6 h. For the same compound, the “predicted steady-state volume of distribution (Vss) in humans” value ([3]; mean unbound Vss scaling from rats and dogs, factoring in human plasma protein binding) was 1.6 L/kg, the “predicted peak to trough ratio in humans” value ([3]; once daily (QD) dosing) was ≥ 8 and the “predicted peak to trough ratio in humans” value ([3]; twice daily (BID) dosing) was ~4. The “actual mean peak to trough ratio at steady state” value ([4]; BID dosing, doses up to 2 mg BID, 15 days of dosing, patients) was ~2, the “peak-to-trough ratio at steady state (median)” value ([4]; QD oral dosing (4 mg, 6 mg, 8 mg QD cohorts), Day 15, patients) was 3.1 and the Cmax at 15 day ([4]; human, plasma, 2 mg BID oral, steady state (day 15), patients, N=2, read-out: Cmax (mean maximum daily concentration)) was 26.9 ng/mL. For the same compound, the concentration at 15 day ([4]; human, plasma, 2 mg BID oral, steady state (day 15), patients, N=2, read-out: Cmin (mean minimum daily concentration)) was 14.6 ng/mL, the “plasma SDMA inhibition” value (PRMT5; cohort 3 to cohort 9: 1, 2, 4, 6 mg BID and 4, 6, 8 mg QD) was “around 80%” and the inhibition at 0.5 mg (PRMT5; human, first two cohorts: 0.5 mg QD and 0.5 mg BID (N=1 in each)) was ~60%. For the same compound, the “SDMA reduction over time” value (PRMT5; plasma, different dose levels, patients (FIG. 8)) was 60-80% and the tolerability [5] was “well tolerated”.
